# Assay results from patent publication US20020111274A1, “1-alkyl-3-[1-(substituted phenyl) benzotriazol-6-yl] uracils” (BASF Aktiengesellschaft, priority 2000, published 2002).
# Legend:
# Set-up in all cases: scale not given here
# SETVI Foxtail, Green [1] = test: Preemergence herbicidal evaluation, SETVI; format: in vivo, Setaria viridis, (L.) Beau; settings: preemergence
# In short: (§1)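 Seeds mixed with potting soil in cups, then sprayed preemergence with aqueous acetone test solution at about 0.013 to 0.800 kg per hectare equivalent. Cups kept under standard greenhouse care; plants rated on a visual scale four to five weeks after treatment.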
# [2] = tested on: IPOHE Morningglory, Ivyleaf; test: Postemergence herbicidal evaluation, IPOHE; format: in vivo, Ipomoea hederacea, (L.) Jacq.; settings: postemergence spray, rated about two-three weeks after treatment
# In short: (§2)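 For this test, compound in an 80/20 acetone/water vehicle with 1.0% seed oil was sprayed over two-week-old seedlings at about 0.006 to 0.400 kg per hectare. Injury was assessed visually two to three weeks on.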
# SETVI Foxtail, Green [3] = test: Postemergence herbicidal evaluation, SETVI; format: in vivo, Setaria viridis, (L.) Beau; settings: postemergence spray, rated about two-three weeks after treatment
# In short: as §2
# [4] = tested on: CHEAL Lambsquarters, Common; test: Postemergence herbicidal evaluation, CHEAL; format: in vivo, Chenopodium album, L.; settings: postemergence spray, rated about two-three weeks after treatment
# In short: as §2
# ABUTH Velvetleaf [5] = test: Postemergence herbicidal evaluation, ABUTH; format: in vivo, Abutilon theophrasti, Medic.; settings: postemergence spray, rated about two-three weeks after treatment
# In short: as §2
# ORYSAT Rice, Tebonnet [6] = test: Preemergence herbicidal evaluation, ORYSAT; format: in vivo, Oryza sativa, (L.); settings: preemergence
# In short: as §1
# GALAP Galium [7] = test: Postemergence herbicidal evaluation, GALAP; format: in vivo, Galium aparine; settings: postemergence spray, rated about two-three weeks after treatment
# In short: as §2
# ZEAMX Corn, Field [8] = test: Postemergence herbicidal evaluation, ZEAMX; format: in vivo, Zea mays, L. (Sammel-Bezeichnung); settings: postemergence spray, rated about two-three weeks after treatment
# In short: as §2
# AMBEL Ragweed, Common = test: Postemergence herbicidal evaluation, AMBEL; format: in vivo, Ambrosia artemisifolia, L.; settings: postemergence spray, rated about two-three weeks after treatment
# In short: as §2
# ECHOG Barnyardgrass = test: Preemergence herbicidal evaluation, ECHOG; format: in vivo, Echinochloa crus-galli, (L.) Beau; settings: preemergence
# In short: as §1
# GALAP Galium [9] = test: Preemergence herbicidal evaluation, GALAP; format: in vivo, Galium aparine; settings: preemergence
# In short: as §1
# ORYSAT Rice, Tebonnet [10] = test: Postemergence herbicidal evaluation, ORYSAT; format: in vivo, Oryza sativa, (L.); settings: postemergence spray, rated about two-three weeks after treatment
# In short: as §2
# ABUTH Velvetleaf [11] = test: Preemergence herbicidal evaluation, ABUTH; format: in vivo, Abutilon theophrasti, Medic.; settings: preemergence
# In short: as §1
# [12] = tested on: TRZAWR Wheat, Winter, cv Riband; test: Preemergence herbicidal evaluation, TRZAWR; format: in vivo, Triticum aestivum; settings: preemergence
# In short: as §1
# [13] = tested on: TRZAWR Wheat, Winter, cv Riband; test: Postemergence herbicidal evaluation, TRZAWR; format: in vivo, Triticum aestivum; settings: postemergence spray, rated about two-three weeks after treatment
# In short: as §2
# GLXMAW Soybean, Williams [14] = test: Preemergence herbicidal evaluation, GLXMAW; format: in vivo, Glycine max, (L.) Merr. cv Williams; settings: preemergence
# In short: as §1
# ZEAMX Corn, Field [15] = test: Preemergence herbicidal evaluation, ZEAMX; format: in vivo, Zea mays, L. (Sammel-Bezeichnung); settings: preemergence
# In short: as §1
# GLXMAW Soybean, Williams [16] = test: Postemergence herbicidal evaluation, GLXMAW; format: in vivo, Glycine max, (L.) Merr. cv Williams; settings: postemergence spray, rated about two-three weeks after treatment
# In short: as §2
# [17] = tested on: CHEAL Lambsquarters, Common; test: Preemergence herbicidal evaluation, CHEAL; format: in vivo, Chenopodium album, L.; settings: preemergence
# In short: as §1
compound,measurement,setting,value
"Cc1ccc(O)c(-n2nnc3cc(F)c(-n4c(=O)cc(C(F)(F)F)n(C)c4=O)cc32)c1 [Example 31, 3-[5-Fluoro-1-(2-Hydroxy-5-Methylphenyl)-1H-1,2,3-Benzotriazol-6-yl]-1-Methyl-6-(Trifluoromethyl)-2,4(1H,3H)-(Pyrimidinedione)]",SETVI herbicidal rating,"SETVI Foxtail, Green [1]; rate 0.008 kg/ha",0.0
same,SETVI herbicidal rating,"SETVI Foxtail, Green [1]; rate 0.016 kg/ha",0.0
same,SETVI herbicidal rating,"SETVI Foxtail, Green [1]; rate 0.032 kg/ha",0.0
same,SETVI herbicidal rating,"SETVI Foxtail, Green [1]; rate 0.062 kg/ha",0.0
same,SETVI herbicidal rating,"SETVI Foxtail, Green [1]; rate 0.125 kg/ha",0.0
same,Postemergence herbicidal rating IPOHE,[2]; 0.008 kg/ha,1.0
same,Postemergence herbicidal rating IPOHE,[2]; 0.016 kg/ha,2.0
same,Postemergence herbicidal rating IPOHE,[2]; 0.032 kg/ha,4.0
same,Postemergence herbicidal rating IPOHE,[2]; 0.062 kg/ha,4.0
same,Postemergence herbicidal rating SETVI,"SETVI Foxtail, Green [3]; 0.008 kg/ha",0.0
same,Postemergence herbicidal rating SETVI,"SETVI Foxtail, Green [3]; 0.016 kg/ha",0.0
same,Postemergence herbicidal rating SETVI,"SETVI Foxtail, Green [3]; 0.032 kg/ha",0.0
same,Postemergence herbicidal rating SETVI,"SETVI Foxtail, Green [3]; 0.062 kg/ha",5.0
same,Postemergence herbicidal rating CHEAL,[4]; 0.008 kg/ha,0.0
same,Postemergence herbicidal rating CHEAL,[4]; 0.016 kg/ha,0.0
same,Postemergence herbicidal rating CHEAL,[4]; 0.032 kg/ha,0.0
same,Postemergence herbicidal rating CHEAL,[4]; 0.062 kg/ha,0.0
same,Postemergence herbicidal rating ABUTH,ABUTH Velvetleaf [5]; 0.008 kg/ha,0.0
same,Postemergence herbicidal rating ABUTH,ABUTH Velvetleaf [5]; 0.016 kg/ha,0.0
same,Postemergence herbicidal rating ABUTH,ABUTH Velvetleaf [5]; 0.032 kg/ha,2.0
same,Postemergence herbicidal rating ABUTH,ABUTH Velvetleaf [5]; 0.062 kg/ha,4.0
same,ORYSAT herbicidal rating,"ORYSAT Rice, Tebonnet [6]; rate 0.008 kg/ha",0.0
same,ORYSAT herbicidal rating,"ORYSAT Rice, Tebonnet [6]; rate 0.016 kg/ha",0.0
same,ORYSAT herbicidal rating,"ORYSAT Rice, Tebonnet [6]; rate 0.032 kg/ha",0.0
same,ORYSAT herbicidal rating,"ORYSAT Rice, Tebonnet [6]; rate 0.062 kg/ha",0.0
same,ORYSAT herbicidal rating,"ORYSAT Rice, Tebonnet [6]; rate 0.125 kg/ha",0.0
same,Postemergence herbicidal rating GALAP,GALAP Galium [7]; 0.008 kg/ha,0.0
same,Postemergence herbicidal rating GALAP,GALAP Galium [7]; 0.016 kg/ha,0.0
same,Postemergence herbicidal rating GALAP,GALAP Galium [7]; 0.032 kg/ha,0.0
same,Postemergence herbicidal rating GALAP,GALAP Galium [7]; 0.062 kg/ha,0.0
same,Postemergence herbicidal rating ZEAMX,"ZEAMX Corn, Field [8]; 0.008 kg/ha",3.5
same,Postemergence herbicidal rating ZEAMX,"ZEAMX Corn, Field [8]; 0.016 kg/ha",3.5
same,Postemergence herbicidal rating ZEAMX,"ZEAMX Corn, Field [8]; 0.032 kg/ha",4.5
same,Postemergence herbicidal rating ZEAMX,"ZEAMX Corn, Field [8]; 0.062 kg/ha",4.5
same,Postemergence herbicidal rating AMBEL,"AMBEL Ragweed, Common; 0.008 kg/ha",0.0
same,Postemergence herbicidal rating AMBEL,"AMBEL Ragweed, Common; 0.016 kg/ha",0.0
same,Postemergence herbicidal rating AMBEL,"AMBEL Ragweed, Common; 0.032 kg/ha",0.0
same,Postemergence herbicidal rating AMBEL,"AMBEL Ragweed, Common; 0.062 kg/ha",3.0
same,ECHCG herbicidal rating,ECHOG Barnyardgrass; rate 0.008 kg/ha,0.0
same,ECHCG herbicidal rating,ECHOG Barnyardgrass; rate 0.016 kg/ha,0.0
same,ECHCG herbicidal rating,ECHOG Barnyardgrass; rate 0.032 kg/ha,0.0
same,ECHCG herbicidal rating,ECHOG Barnyardgrass; rate 0.062 kg/ha,0.0
same,ECHCG herbicidal rating,ECHOG Barnyardgrass; rate 0.125 kg/ha,0.0
same,GALAP herbicidal rating,GALAP Galium [9]; rate 0.008 kg/ha,0.0
same,GALAP herbicidal rating,GALAP Galium [9]; rate 0.016 kg/ha,0.0
same,GALAP herbicidal rating,GALAP Galium [9]; rate 0.032 kg/ha,0.0
same,GALAP herbicidal rating,GALAP Galium [9]; rate 0.062 kg/ha,0.0
same,GALAP herbicidal rating,GALAP Galium [9]; rate 0.125 kg/ha,0.0
same,Postemergence herbicidal rating ORYSAT,"ORYSAT Rice, Tebonnet [10]; 0.008 kg/ha",1.0
same,Postemergence herbicidal rating ORYSAT,"ORYSAT Rice, Tebonnet [10]; 0.016 kg/ha",1.0
same,Postemergence herbicidal rating ORYSAT,"ORYSAT Rice, Tebonnet [10]; 0.032 kg/ha",1.5
same,Postemergence herbicidal rating ORYSAT,"ORYSAT Rice, Tebonnet [10]; 0.062 kg/ha",1.5
same,ABUTH herbicidal rating,ABUTH Velvetleaf [11]; rate 0.008 kg/ha,0.0
same,ABUTH herbicidal rating,ABUTH Velvetleaf [11]; rate 0.016 kg/ha,0.0
same,ABUTH herbicidal rating,ABUTH Velvetleaf [11]; rate 0.032 kg/ha,0.0
same,ABUTH herbicidal rating,ABUTH Velvetleaf [11]; rate 0.062 kg/ha,0.0
same,ABUTH herbicidal rating,ABUTH Velvetleaf [11]; rate 0.125 kg/ha,3.0
same,TRZAWR herbicidal rating,[12]; rate 0.008 kg/ha,0.0
same,TRZAWR herbicidal rating,[12]; rate 0.016 kg/ha,0.0
same,TRZAWR herbicidal rating,[12]; rate 0.032 kg/ha,0.0
same,TRZAWR herbicidal rating,[12]; rate 0.062 kg/ha,0.0
same,TRZAWR herbicidal rating,[12]; rate 0.125 kg/ha,0.0
same,Postemergence herbicidal rating TRZAWR,[13]; 0.008 kg/ha,2.0
same,Postemergence herbicidal rating TRZAWR,[13]; 0.016 kg/ha,2.0
same,Postemergence herbicidal rating TRZAWR,[13]; 0.032 kg/ha,3.0
same,Postemergence herbicidal rating TRZAWR,[13]; 0.062 kg/ha,3.0
same,GLXMAW herbicidal rating,"GLXMAW Soybean, Williams [14]; rate 0.008 kg/ha",0.0
same,GLXMAW herbicidal rating,"GLXMAW Soybean, Williams [14]; rate 0.016 kg/ha",0.0
same,GLXMAW herbicidal rating,"GLXMAW Soybean, Williams [14]; rate 0.032 kg/ha",0.0
same,GLXMAW herbicidal rating,"GLXMAW Soybean, Williams [14]; rate 0.062 kg/ha",0.0
same,GLXMAW herbicidal rating,"GLXMAW Soybean, Williams [14]; rate 0.125 kg/ha",0.0
same,ZEAMX herbicidal rating,"ZEAMX Corn, Field [15]; rate 0.008 kg/ha",0.0
same,ZEAMX herbicidal rating,"ZEAMX Corn, Field [15]; rate 0.016 kg/ha",0.0
same,ZEAMX herbicidal rating,"ZEAMX Corn, Field [15]; rate 0.032 kg/ha",0.0
same,ZEAMX herbicidal rating,"ZEAMX Corn, Field [15]; rate 0.062 kg/ha",0.0
same,ZEAMX herbicidal rating,"ZEAMX Corn, Field [15]; rate 0.125 kg/ha",0.0
same,Postemergence herbicidal rating GLXMAW,"GLXMAW Soybean, Williams [16]; 0.008 kg/ha",3.5
same,Postemergence herbicidal rating GLXMAW,"GLXMAW Soybean, Williams [16]; 0.016 kg/ha",3.5
same,Postemergence herbicidal rating GLXMAW,"GLXMAW Soybean, Williams [16]; 0.032 kg/ha",4.5
same,Postemergence herbicidal rating GLXMAW,"GLXMAW Soybean, Williams [16]; 0.062 kg/ha",5.0
same,CHEAL herbicidal rating,[17]; rate 0.008 kg/ha,0.0
same,CHEAL herbicidal rating,[17]; rate 0.016 kg/ha,0.0
same,CHEAL herbicidal rating,[17]; rate 0.032 kg/ha,0.0
same,CHEAL herbicidal rating,[17]; rate 0.062 kg/ha,3.0
same,CHEAL herbicidal rating,[17]; rate 0.125 kg/ha,9.0
